Some test systems named below: A549; COLO 205; HCC 2998; HCT-116; HL-60; HT-29; MCF7; MDA-MB-435; MDA-N; MOLT-4; RXF 393; SF-295; SK-MEL-28; SK-MEL-2; SN12C; T47D; TK-10; U-251; UACC-257.
Experiment in all cases: DTP human tumour cell line panel, 48 h

SMILES strings stand for the structures.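 Test compounds were applied to cells in 96-well plates for 48 hours at 5 doses. The concentration for 50% growth inhibition is given as GI50.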 Calls of active or inactive are those of the source. No stated cut-off is given here; in the data, active = GI50 up to about 1.1 µM and inactive = higher. Bounds are passed on as bounds.

The term GI50 denotes the concentration that inhibits growth by half. Turning to `N=C(N)NNC(=O)C(=O)O`, the GI50 in the test with A549, with COLO 205, in the test on HCC 2998, in the test on HCT-116, with HL-60 and in the test with HT-29 was > 100 µM (inactive) in each case. The GI50 in the test with MCF7, in the test with MDA-MB-435, in the test with MDA-N, in the test on MOLT-4, in the test with RXF 393 and in the test with SF-295 was > 100 µM (inactive) each time. In addition, the GI50 in the test with SK-MEL-28, with SK-MEL-2, in the test on SN12C, with T47D, with TK-10 and in the test on U-251 was > 100 µM (inactive) in each case. Also, the GI50 in the test on UACC-257 was > 100 µM (inactive).
Take `COc1cc(OC)c2c(O)c3c(cc2c1)CC(C)(C)CC3=O`: the GI50 is > 100 µM (inactive) in the test on A549; > 100 µM (inactive) with COLO 205; > 100 µM (inactive) in the test on HCC 2998; > 100 µM (inactive) in the test with HCT-116; > 32.7 µM (inactive) in the test with HL-60; 5.96 µM (inactive) in the test with HT-29. In addition, the GI50 in the test with MCF7 is > 100 µM (inactive); in the test on MDA-MB-435, 19.4 µM (inactive); in the test on MDA-N it was > 64 µM (inactive); in the test on MOLT-4, > 76.6 µM (inactive); with RXF 393, > 100 µM (inactive); in the test with SF-295, > 72.6 µM (inactive). For the same molecule, the GI50 in the test with SK-MEL-28 is 60.7 µM (inactive); with SK-MEL-2 it was > 100 µM (inactive); in the test with SN12C, > 100 µM (inactive); with T47D, > 100 µM (inactive); with TK-10 it was > 100 µM (inactive); in the test with U-251, 56.5 µM (inactive). Moreover, in the test on UACC-257, the GI50 was > 100 µM (inactive).
Consider `N/N=C(\c1nc2ccc([N+](=O)[O-])cc2nc1O)C(O)c1ccc(Cl)c(Cl)c1` (centres undefined), for which the GI50 in the test on A549 was > 100 µM (inactive); in the test with COLO 205, > 100 µM (inactive); in the test with HCC 2998, > 100 µM (inactive); in the test on HCT-116 it was 71.3 µM (inactive); in the test on HL-60, 47.4 µM (inactive); in the test on HT-29, > 100 µM (inactive). For the same molecule, the GI50 is > 100 µM (inactive) with MCF7; 71.6 µM (inactive) in the test with MDA-MB-435; > 100 µM (inactive) with MDA-N; 22 µM (inactive) in the test on MOLT-4; > 100 µM (inactive) with RXF 393; > 100 µM (inactive) in the test on SF-295. Also, the GI50 is > 100 µM (inactive) with SK-MEL-28; > 100 µM (inactive) in the test with SK-MEL-2; > 100 µM (inactive) in the test with SN12C; 67.3 µM (inactive) with T47D; > 100 µM (inactive) in the test on TK-10; > 100 µM (inactive) in the test with U-251. The GI50 in the test on UACC-257 was > 100 µM (inactive).
As for `CCNC(=S)N/N=C/c1cc(OC)ccc1O`, the GI50 in the test with A549 is 52.8 µM (inactive); in the test on COLO 205 it was > 100 µM (inactive); with HCC 2998 it was > 100 µM (inactive); with HCT-116, 85.5 µM (inactive); in the test with HL-60, > 100 µM (inactive); in the test on HT-29, > 100 µM (inactive). Also, the GI50 with MCF7 was 5.74 µM (inactive); with MDA-MB-435, 64.6 µM (inactive); with MDA-N, > 100 µM (inactive); in the test with MOLT-4, 67.1 µM (inactive); with RXF 393, > 100 µM (inactive); in the test on SF-295, 70.3 µM (inactive). The GI50 is > 100 µM (inactive) in the test with SK-MEL-28; > 100 µM (inactive) in the test on SK-MEL-2; > 100 µM (inactive) in the test on SN12C; 24.3 µM (inactive) in the test with T47D; > 100 µM (inactive) in the test with TK-10; 61.4 µM (inactive) with U-251. The GI50 with UACC-257 is > 100 µM (inactive).
`COc1ccccc1NC(=S)N/N=C(/C)c1ccccn1`: the GI50 in the test on A549 is < 0.0274 µM (active); in the test with COLO 205, < 0.0119 µM (active); in the test with HCC 2998, 7 µM (inactive); with HCT-116, < 0.01 µM (active); with HL-60, < 0.01 µM (active); in the test on HT-29, < 0.01 µM (active). For the same molecule, the GI50 was < 0.01 µM (active) in the test with MCF7; 0.968 µM (active) in the test on MDA-MB-435; 0.637 µM (active) in the test with MDA-N; < 0.01 µM (active) in the test on MOLT-4; 0.658 µM (active) in the test on RXF 393; 0.0771 µM (active) in the test on SF-295. In addition, the GI50 is 1.71 µM (inactive) with SK-MEL-28; 7.5 µM (inactive) in the test with SK-MEL-2; 0.178 µM (active) with SN12C; < 0.01 µM (active) with T47D; 0.0644 µM (active) in the test with TK-10; < 0.0172 µM (active) with U-251. Moreover, in the test on UACC-257, the GI50 is < 0.01 µM (active).
On to `N#CS/C(C(Cl)=C(Cl)Cl)=C(/Cl)[N+](=O)[O-]`, for which the GI50 is 21 µM (inactive) with A549; 1.49 µM (inactive) in the test on COLO 205; 18.6 µM (inactive) in the test with HCC 2998; 1.5 µM (inactive) in the test with HCT-116; 0.219 µM (active) in the test on HL-60; 1.9 µM (inactive) with HT-29. In addition, the GI50 in the test on MCF7 is 3.9 µM (inactive); in the test on MDA-MB-435, 1.66 µM (inactive); with MDA-N, 1.8 µM (inactive); with MOLT-4, 0.6 µM (active); in the test on RXF 393, 1.4 µM (inactive); with SF-295 it was 22.2 µM (inactive). The GI50 in the test with SK-MEL-28 was 1.76 µM (inactive); in the test on SK-MEL-2, 4.52 µM (inactive); in the test on SN12C it was 2.21 µM (inactive); in the test with T47D, 1.99 µM (inactive); in the test with TK-10 it was 2.23 µM (inactive); with U-251, 14.1 µM (inactive). Moreover, the GI50 with UACC-257 was 1.75 µM (inactive).
`CC(O)C1(O)C(O)CC(OC2c3cc4c(c(O)c3[C@@H]3C[C@@]2(C)OC32C=c3cc[nH]c3=N2)C(=O)c2cccc(O)c2C4=O)OC1C` (some centres undefined): the GI50 with A549 is 0.433 µM (active); with COLO 205, 0.697 µM (active); in the test with HCC 2998 it was 1.11 µM (active); in the test with HCT-116, 0.789 µM (active); in the test with HL-60, 0.598 µM (active); in the test on HT-29 it was 0.644 µM (active). In addition, the GI50 with MCF7 was 0.762 µM (active); in the test on MDA-MB-435, 1.63 µM (inactive); in the test on MDA-N, 1.81 µM (inactive); in the test on MOLT-4, 0.334 µM (active); in the test on RXF 393, 1.05 µM (active); with SF-295 it was 1.87 µM (inactive). The GI50 with SK-MEL-28 is 1.7 µM (inactive); in the test on SK-MEL-2, 1.6 µM (inactive); with SN12C it was 0.607 µM (active); in the test with T47D, 3.1 µM (inactive); in the test with TK-10, 1.71 µM (inactive); in the test on U-251, 1.53 µM (inactive). Further, the GI50 in the test with UACC-257 is 1.48 µM (inactive).
With `CCCC(Sc1nc(N)nc2nc[nH]c12)C(=O)O` (centres undefined), the GI50 with A549 is > 100 µM (inactive); in the test on COLO 205 it was > 100 µM (inactive); with HCC 2998, 34.3 µM (inactive); with HCT-116, 42.1 µM (inactive); in the test on HL-60, > 100 µM (inactive); in the test with HT-29, 78.5 µM (inactive). For the same molecule, the GI50 in the test on MCF7 is 62.4 µM (inactive); with MDA-MB-435, 74.8 µM (inactive); with MDA-N, 47.5 µM (inactive); with MOLT-4, 33.2 µM (inactive); with RXF 393, 81.5 µM (inactive); in the test with SF-295, 59.7 µM (inactive). Also, the GI50 in the test with SK-MEL-28 was > 100 µM (inactive); in the test on SK-MEL-2 it was > 100 µM (inactive); with SN12C, > 100 µM (inactive); in the test with T47D it was > 100 µM (inactive); with TK-10 it was 26.6 µM (inactive); in the test with U-251, > 100 µM (inactive). In addition, in the test on UACC-257, the GI50 was > 100 µM (inactive).
Turning to `Nc1ccc(-c2nc3cc(F)ccc3s2)cc1Cl`, the GI50 with A549 is 7.46 µM (inactive); with COLO 205, 0.454 µM (active); in the test on HCC 2998, < 0.01 µM (active); with HCT-116, 0.0782 µM (active); with HL-60 it was 3.64 µM (inactive); with HT-29 it was 0.692 µM (active). Also, the GI50 with MCF7 was 0.0102 µM (active); with MDA-MB-435 it was > 100 µM (inactive); with MDA-N it was > 100 µM (inactive); with MOLT-4 it was > 35.6 µM (inactive); in the test with RXF 393, 24 µM (inactive); in the test on SF-295, 23.5 µM (inactive). Moreover, the GI50 was > 85.5 µM (inactive) with SK-MEL-28; 41.1 µM (inactive) in the test on SK-MEL-2; 23.3 µM (inactive) with SN12C; 0.0615 µM (active) with T47D; 0.0357 µM (active) in the test on TK-10; 20 µM (inactive) in the test on U-251. The GI50 in the test on UACC-257 is 72.6 µM (inactive).
On to `O=C(/C=C/c1ccc(O)c(O)c1)Oc1ccccc1`, for which the GI50 was 15.3 µM (inactive) in the test on A549; 9.57 µM (inactive) in the test with COLO 205; 18.6 µM (inactive) with HCC 2998; 9.71 µM (inactive) in the test on HCT-116; 1.61 µM (inactive) in the test on HL-60; 11.3 µM (inactive) in the test on HT-29. The GI50 in the test on MCF7 is 12.2 µM (inactive); in the test with MDA-MB-435, 14.5 µM (inactive); in the test with MDA-N, 16.1 µM (inactive); in the test with MOLT-4, 0.268 µM (active); in the test with RXF 393, 8.71 µM (inactive); in the test with SF-295 it was 19.5 µM (inactive). Also, the GI50 is 22.5 µM (inactive) in the test on SK-MEL-28; 15.7 µM (inactive) with SK-MEL-2; 16 µM (inactive) with SN12C; 9.71 µM (inactive) in the test with T47D; 28.1 µM (inactive) with TK-10; 12.6 µM (inactive) in the test with U-251. Also, in the test on UACC-257, the GI50 was 22.8 µM (inactive).
As to `CSc1ccccc1P(CCP(c1ccccc1SC)c1ccccc1SC)c1ccccc1SC`, the GI50 in the test on A549 was 3.96 µM (inactive); in the test on COLO 205 it was 0.697 µM (active); with HCC 2998, 4.88 µM (inactive); in the test with HCT-116, 0.413 µM (active); in the test with HL-60 it was 0.4 µM (active); with HT-29 it was 1.28 µM (inactive). For the same molecule, the GI50 in the test on MCF7 is 1.95 µM (inactive); in the test with MDA-MB-435, 31.5 µM (inactive); in the test with MDA-N, 50.5 µM (inactive); with MOLT-4, 2.22 µM (inactive); in the test with RXF 393, 30.8 µM (inactive); in the test with SF-295 it was 7.08 µM (inactive). Further, the GI50 was 76.2 µM (inactive) with SK-MEL-28; 53.3 µM (inactive) in the test with SK-MEL-2; 38.3 µM (inactive) in the test with SN12C; 12.4 µM (inactive) in the test on T47D; > 69 µM (inactive) with TK-10; 4.2 µM (inactive) in the test with U-251. Further, the GI50 in the test on UACC-257 is 13.5 µM (inactive).
